Laboratory results reported in paper PMC11532494 (Nature Communications, 2024).
Values joined by “and” are separate entries in the source; they are usually repeats but may differ in a detail not shown here. Equal entries are not always repeated. Where two headings read alike, the source gives them in different places.

How the values were obtained:
BsAcuC = BsAcuC (Bacillus subtilis, UniProt P39067); format: biochemical; conditions: substrate with BsAcuC
KpHdaH H144A = format: biochemical, Klebsiella pneumoniae
D20-37KpHdaH = format: biochemical, Klebsiella pneumoniae; conditions: substrate with D20-37KpHdaH (L1-loop deletion)
BsAcuC (2c) [1] = molecular target: T1, BsAcuC (2c) (Bacillus subtilis, UniProt P39067); test: Dose-response inhibition assay; format: biochemical; conditions: 40 µM LGKac; for IC50: 200 nM enzyme, 30 min, 37 °C
T1 construct: made in house; host or cells: E. coli BL21 (DE3)
T1 sequence (P39067 1-387): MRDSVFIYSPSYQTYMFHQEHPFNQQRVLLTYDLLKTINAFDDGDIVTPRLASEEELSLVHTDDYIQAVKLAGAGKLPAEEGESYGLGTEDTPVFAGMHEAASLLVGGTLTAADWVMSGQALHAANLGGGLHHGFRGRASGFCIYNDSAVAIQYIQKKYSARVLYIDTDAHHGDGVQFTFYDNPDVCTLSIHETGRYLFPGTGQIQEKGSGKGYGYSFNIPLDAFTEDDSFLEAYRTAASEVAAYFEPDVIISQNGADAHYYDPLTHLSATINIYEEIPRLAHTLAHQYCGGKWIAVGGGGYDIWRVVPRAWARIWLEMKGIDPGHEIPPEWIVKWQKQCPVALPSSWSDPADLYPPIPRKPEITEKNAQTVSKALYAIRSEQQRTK
Source text: Data was transformed to relative enzyme activity (%) compared to control wells without inhibitor, and fitted to sigmoidal functions with variable slope (Eqs. 3, 4 parameters, h: Hill slope) to afford IC50 values. Assuming fast-on/fast-off competitive inhibition, the Cheng–Prusoff equation (Eq. 4) was employed to transform IC50 data into inhibitory constants (Ki), with KM values as determined previously.3 Res.activity=Res.activitybottom+Res.activitytop−Res.activitybottom/1+10^(logIC50−logI)h 4 Ki=IC50/1+[S]/KM

KpHdaH (1b) [2] = molecular target: T2, KpHdaH (1b) (Klebsiella pneumoniae, UniProt A0A377Z5F6); test: biochemical; conditions: for IC50: 15 nM enzyme, 60 min, 37 °C
LcApaH (3) = LcApaH (3) (Legionella cherrii, UniProt A0A0W0SGS1); test: biochemical; conditions: for IC50: 0.5 nM enzyme, 30 min, 37 °C
LpApaH (3) = LpApaH (3) (Legionella pneumophila, UniProt A0A2S6EWV0); test: biochemical
RwDmhA (1b) [3] = molecular target: T3, RwDmhA (1b) (Rhizorhabdus wittichii, UniProt A0A067XIQ6); test: biochemical; conditions: for IC50: 30 nM enzyme, 60 min, 37 °C
(UniProt A0A2N0XRJ0) = test: biochemical; design: species or system Vibrio sp.; conditions: for IC50: 60 µM QPKKac, 1.5 nM enzyme, 60 min, 37 °C
BsAcuC (2c) [4] = molecular target: T1, BsAcuC (2c); test: Inhibitor screening assay (10 µM or 1 µM); format: biochemical; conditions: pre-screening at 10 µM or 1 µM inhibitor
Source text: Data was transformed to relative enzyme activity (%) compared to control wells without inhibitors.

KpHdaH (1b) [5] = molecular target: T2, KpHdaH (1b); test: biochemical; conditions: for remaining activity at 1 µM: inhibitor 1 µM; for remaining activity at 10 µM: inhibitor 10 µM
RwDmhA (1b) [6] = molecular target: T3, RwDmhA (1b); test: biochemical; conditions: for remaining activity at 1 µM: inhibitor 1 µM
VcHdaH (5b) = conditions: VcHdaH (5b)+TSA control; for RFU: 20 nM enzyme, 37 °C, single replicates; for RFU, mean: mean of n = 3
HsHDAC11 (5f) = conditions: cited from earlier work
PsApaH (4) = PsApaH (4) (Pseudomonas sp. M30-35, UniProt A0A1Y0KY79); test: biochemical
[7] = decadic log of IC50, read-out: Log[IC50(M)] (converted)
[8] = Log[IC50(M)], decadic log of IC50, 60 µM QPKKac

Compound: CC(=O)NCCCC[C@H](NC(=O)OC(C)(C)C)C(=O)Nc1ccc2c(C)cc(=O)oc2c1 [Boc-Lys(Ac)-AMC]
- AMC fluorescence (BsAcuC): 768 a.u.
- AMC fluorescence (KpHdaH H144A; substrate with KpHdaH H144A (first of two columns with this head)): 2059 a.u.
- AMC fluorescence (KpHdaH H144A; substrate with KpHdaH H144A (second of two columns with this head)): 31 a.u.
- AMC fluorescence (D20-37KpHdaH): 1597 a.u.

Compound: CC(/C=C/C(=O)NO)=C\[C@@H](C)C(=O)c1ccc(N(C)C)cc1 [TSA, trichostatin A]
- IC50 (BsAcuC (2c) [1]; read-out: IC50): 5.93e-07 M
- Ki (BsAcuC (2c) [1]; calculated using the Cheng–Prusoff equation): 400 nM
- IC50 (BsAcuC (2c) [1]; [7]): 6.31e-07 M
- IC50 (KpHdaH (1b) [2]; IC50, 60 µM QPKKac): ≤ 1.07e-08 M
- Ki (KpHdaH (1b) [2]; Ki, calculated using the Cheng–Prusoff equation, 60 µM QPKKac): ≤ 2.47 nM
- IC50 (KpHdaH (1b) [2]; [8]): ≤ 1.07e-08 M
- IC50 (LcApaH (3); IC50, 40 µM LGKac): 1.04e-08 M
- Ki (LcApaH (3); Ki, calculated using the Cheng–Prusoff equation, 40 µM LGKac): 3.95 nM
- IC50 (LcApaH (3); Log[IC50(M)], decadic log of IC50, 40 µM LGKac): 1.05e-08 M
- IC50 (LpApaH (3); IC50): 7.17e-09 M
- Ki (LpApaH (3); Ki): 2.47 nM
- IC50 (LpApaH (3); Log[IC50(M)]): 7.94e-09 M
- Ki (RwDmhA (1b) [3]): 356 nM
- IC50 (RwDmhA (1b) [3]; IC50, 60 µM QPKKac): 8.65e-07 M
- IC50 (RwDmhA (1b) [3]; [8]): 8.71e-07 M
- Ki ((UniProt A0A2N0XRJ0)): 11.1 nM
- IC50 ((UniProt A0A2N0XRJ0); read-out: IC50): 2.54e-08 M
- IC50 ((UniProt A0A2N0XRJ0); [7]): 2.51e-08 M
- inhibition of BsAcuC (2c) in the initial screen, in words (BsAcuC (2c) [4]): only weakly inhibited
- remaining activity at 1 µM (KpHdaH (1b) [5]; individual replicates): 2.1%
- remaining activity at 1 µM (KpHdaH (1b) [5]; mean): 2.15%
- remaining activity at 10 µM (KpHdaH (1b) [5]; individual replicates): -0.2%
- remaining activity at 10 µM (KpHdaH (1b) [5]; mean): -0.2%
- remaining activity at 1 µM (RwDmhA (1b) [6]; individual replicates): 45.9%
- remaining activity at 1 µM (RwDmhA (1b) [6]; mean): 45.5%
- remaining activity at 10 µM (RwDmhA (1b) [6]; inhibitor 10 µM, mean): 7.3%
- RFU (VcHdaH (5b); 10 µM peptide 2 (S2), 45 min): 14 RFU and 2 RFU and 59 RFU
- RFU, mean (VcHdaH (5b); 10 µM peptide 2 (S2)): 25 RFU
- RFU (VcHdaH (5b); 10 µM peptide 2a (S2a), 30 min): -513 RFU and -208 RFU and -504 RFU
- RFU, mean (VcHdaH (5b); 10 µM peptide 2a (S2a)): -408 RFU
- RFU (VcHdaH (5b); 20 µM Boc-Lys(Ac)-AMC, 30 min): 8 RFU and -7 RFU and -73 RFU
- RFU, mean (VcHdaH (5b); 20 µM Boc-Lys(Ac)-AMC): -24 RFU
- inhibition of HsHDAC11 (5f), in words (HsHDAC11 (5f)): only weakly inhibited
- IC50 (PsApaH (4)): ≤ 18.1 nM
- Ki (PsApaH (4)): ≤ 7.56 nM
